As a reminder, the melting point is the temperature of the solid-liquid transition. The compound `COc1cccc(CC(=O)O)c1OCc1cc(OC(C)C)nn1Cc1ccc(Cl)cc1Cl` returned a melting point of 127 to 128 °C.
Then `CCOC1C=CC(Cl)=CC1(C)S(N)(=O)=O` (stereo not drawn), with 153 to 155 °C; and `O=S1(=O)NCN(C2CC2)c2c(F)cc(F)cc21`, with 149 to 151 °C.
`CC(C)CCN1C(=O)C(N)C(=O)N(CC23CC4CC(CC(C4)C2)C3)c2ccccc21` (stereo not drawn) showed a melting point of 218 to 219 °C.
Compound `COC(=O)CNc1cc(O)c(C(C)=O)c(OC)c1` came in with a melting point of 114 to 115 °C.
Then `Cc1nc(C(F)(F)F)ccc1C(=O)c1c(S(C)=O)noc1C1CC1` (stereo not drawn), with 96 to 97 °C; and `C=Cc1cccc2ccc(O)nc12`, with 96 °C.
Then `Cn1cc(C(=O)NCc2ccc(Cl)cc2)c(=O)c2cc(CO)cc(I)c21`, with 242 to 244 °C.
For the compound `C[C@H]1COC(=O)N1c1nc(-c2ccc(C#N)cc2)cs1`, the melting point lay within 205 to 207 °C.
`c1ccc(-c2cnc(N3CCc4c([nH]c5ccccc45)C3C3Cc4ccccc4O3)nc2)nc1` (stereo not drawn) gave a melting point of 170 to 171 °C.
On to `N#CC1=C(C#N)Sc2nc3cc(C#N)ccc3nc2S1`, for which the melting point lay in the range of 218 to 220 °C.
Then `Cc1cccc(N2CCN(c3ccc(Oc4ccccc4)nn3)CC2)c1`, with 123 °C.
With `CCCc1nc(N)nc(N)c1N1CCN(c2ccc(C(=O)OCC)cc2)CC1`, the melting point lay within 215 to 216 °C.
For the compound `O=[N+]([O-])c1cnc(NCC(O)CO)cn1` (stereo not drawn), the melting point was 185 to 187 °C.
Then `O=S1(=O)N=CN(CCF)c2cc(Cl)c(Cl)cc21`, with 233 to 234 °C; and `CC1(C)CC(c2ncccn2)c2cc(C#N)ccc2O1` (stereo not drawn), with 109 to 111 °C; and `O=C([C@H]1CCc2cc(Cl)c(Cl)cc21)N1CCSC[C@H]1CN1CCCC1`, with 123 to 124 °C.
As for `COc1cc(-c2ccc(N)nn2)ccc1OC(F)F`, the figure is 184 °C; as for `O=c1c2ccccc2ccc2ccc(SC(F)(F)F)cc12`, 87 to 88 °C; as for `CONS(=O)(=O)c1cccc(C(F)(F)F)c1`, 78 to 81 °C.
As for `COc1ccc([C@@H]2CN(C)CC[C@@H]2NC(=O)c2ccc(C)cc2)cc1OC` (relative stereo), the figure is 145 to 146 °C.
For the compound `CC(C)C(C(=O)O)c1ccc(O)cc1` (stereo not drawn), the melting point is 172 to 174 °C.
The compound `O=C(NCc1ccc(Cl)cc1)c1cnc2c(I)cc(CN3CCOCC3)cc2c1O` displayed a melting point of 230 to 233 °C.
`Nc1nc(-c2ccc(CCCCN3CCN(c4nsc5ccccc45)CC3)cc2)cs1`: the melting point lay in the range of 258 to 261 °C.
As for `Cc1nc(OC(C)C(=O)O)nn1-c1cccc(Cl)c1` (stereo not drawn), the figure is 101 to 103 °C.
`CC1CCN(C(=O)c2ccc3nonc3c2)CC1` showed a melting point of 86 to 87 °C.
`O=C(c1ccc(-c2ncn[nH]2)cc1Cl)N1Cc2cccn2Cc2ccccc21` gave a melting point of 174 to 177 °C.
As for `CCCNC(=O)c1nc(-c2ccccc2)c(-c2ccc(=O)n(CC)n2)s1`, the figure is 106 to 108 °C; as for `Cc1c(SCCCSc2nnnn2CC(=O)O)ccnc1CSc1ccncc1`, 185 to 187 °C.
Then `Cn1ccc(-c2ccc(C(=O)N3Cc4cccn4Cc4ccccc43)c(Cl)c2)n1`, with 148 to 150 °C.
As for `Cc1ccc(C(=O)Nc2cc(-n3cncc3C)cc(C(F)(F)F)c2)cc1Nc1nccc(-c2cccnc2)n1`, the figure is 231 to 233 °C.
In the case of `O=C(O)c1ccc(-c2nn(-c3ccc(C(=O)O)cc3)c3ccc([N+](=O)[O-])cc23)cc1`, the melting point was in the range of 348 to 350 °C.
As for `Cc1ccc(-c2nc(Cc3cc4cc(CO)ccc4o3)c(C)o2)cc1`, the figure is 156 to 160 °C.
`Cn1cc(OS(C)(=O)=O)c(=O)c2ccc(OCC(F)(F)F)cc21` showed a melting point of 110 to 112 °C.
As for `Cc1ccc(C2NCCc3c2[nH]c2ccccc32)cc1` (stereo not drawn), the figure is 207 to 209 °C.
Then `CCOC(=O)C1=C(C)NN=C(CC)C1c1ccc([N+](=O)[O-])cc1` (stereo not drawn), with 141 °C.
Then `COCOC(C(Cc1ccccc1)NC(=O)[C@@H](NC(=O)OCc1ccccc1)C(C)C)C(Cc1ccccc1)NC(=O)[C@@H](NC(=O)OCc1ccccc1)C(C)C` (stereo partly drawn), with 197 to 198 °C; and `COC(=O)c1sccc1Nc1ccc(F)cc1[N+](=O)[O-]`, with 172 to 175 °C; and `CC1=CC(c2cccs2)(C(C)C(=O)O)Nc2ccccc21` (stereo not drawn), with 228 to 229 °C.
`COc1cc(F)c(C2CNCc3ccsc32)cc1OC` (stereo not drawn) displayed a melting point of 108 to 111 °C.
`CN(C)S(=O)(=O)c1ccc(C(F)(F)F)cc1S(N)(=O)=O` registered a melting point of 189 to 191 °C.
Compound `COC(=O)c1cccc(S(=O)(=O)Cl)c1C` registered a melting point of 46.5 to 50 °C.
`NS(=O)(=O)c1cccc(-c2cccc(-c3nc(-c4ccc(Cl)cc4Cl)cc(C(F)(F)F)n3)c2)c1` registered a melting point of 202 °C.
Then `O=c1ccc(-c2c(-c3ccccc3)nn3ccccc23)nn1-c1ccccc1`, with 170 °C; and `NS(=O)(=O)c1ncccc1C(F)(F)F`, with 135 to 140 °C; and `O=C1N(Cc2ccccc2C(F)(F)F)c2ccccc2C12COc1cc3c(cc12)OCCO3` (stereo not drawn), with 137 to 138 °C.
As for `O=C(O)Cc1cc(Cl)cc(Cl)c1Cl`, the figure is 125 to 133 °C; as for `Fc1ccc(-c2cn(C3CCCN4CCCCC34)nn2)cc1` (stereo not drawn), 142 °C.
Compound `CN(C(=O)OC(C)(C)C)c1cc(Sc2ccc(O)cc2)ccc1N` returned a melting point of 62 to 67 °C.
Then `CCS(=O)c1ccc(N2CC(CNC(C)=S)OC2=O)cc1F` (stereo not drawn), with 138 to 139 °C.
As for `CCON=C(CC)C1=C(O)CC(c2ccc(C(=O)OC)cc2)CC1=O` (stereo not drawn), the figure is 75 to 76 °C; as for `COC(=O)c1ccc(OC)c(/C=C/C(=O)N(C(C)C)C(C)C)c1`, 139 to 140 °C; as for `CCN1CCN(C(=O)c2ccc([N+](=O)[O-])cc2C)CC1`, 96 to 99 °C.
As for `COC(=O)C1=Cc2cc(-c3ccc(C(C)(C)C)cc3)ccc2S(=O)(=O)CC1`, the figure is 170 to 172 °C; as for `COC(=O)c1ccc(CC(C)NCC(O)c2ccc(O)c(NS(C)(=O)=O)c2)cc1` (stereo not drawn), 133 to 140 °C.
Turning to `Cc1nc2ccccc2nc1S(=O)Cc1ccccn1` (stereo not drawn), the melting point was in the range of 85 to 88 °C.
As for `COCOc1cc(F)ccc1-c1cc(-c2cccc(C(=O)OC)c2)c(C#N)c(N)n1`, the figure is 155 to 158 °C; as for `CC(C)CC1CCN(CCc2ccccc2)C1=O` (stereo not drawn), 69 to 71 °C.
In turn, `C[C@H](N[C@@H]1CNC(=O)C12CC2)c1ccccc1` returned a melting point of 107 to 110 °C.
The compound `Cc1cc(C(=S)N(C)C)ncc1C(c1cc(F)ccc1F)S(=O)(=O)c1ccc(F)cc1` (stereo not drawn) came in with a melting point of 161 to 164 °C.
As for `Cn1nc(C(F)(F)C(F)(F)F)c(C(F)(F)F)c1-n1cc(-c2ccc(Cl)c(C(=O)NC3CC3)c2)nn1`, the melting point was in the range of 150 to 152 °C.
As for `COc1ccc(C=Cc2c(Cl)cncc2Cl)c2c1OC1(CCCC1)O2`, the figure is 100 to 101 °C; as for `Cc1cccc2n[nH]c(=O)n12`, 182 to 183 °C; as for `Fc1ccc(Cn2c(NC3CCN(CCSc4ncccn4)CC3)nc3ccccc32)cc1`, 146 to 148 °C.
Compound `Fc1ccc(-c2cccc(F)n2)cc1` yielded a melting point of 34 °C.
Then `O=C(NCCO)c1cc(C(=O)NCCO)cc([N+](=O)[O-])c1`, with 151 °C.
`CCCC(=O)Nc1nn(COCC[Si](C)(C)C)c2cc(-c3ccc(SC)cc3)ccc12` yielded a melting point of 225 °C.
In turn, `CN(Cc1nc(-c2cc(C(C)(C)C)c(O)c(C(C)(C)C)c2)cs1)c1ccc([N+](=O)[O-])cc1` displayed a melting point of 199 to 201 °C.
As for `CCOC(=O)c1ccc(/C=C/c2c(C)cc3c(c2OC)C(C)(C)CCC3(C)C)cc1`, the figure is 123 °C.
Then `O=C1CCCN1c1ccc(N2C[C@H](CO)OC2=O)cc1`, with 148 °C; and `CCOc1ccccc1Nc1ncc(C(=O)O)c(=O)[nH]1`, with 226 to 228 °C; and `CCOC(=O)c1c(Cn2ccnc2CC)nc2cc(OC)c(OC)cc2c1-c1ccc(OC)c(OC)c1`, with 163 to 164 °C.
As for `CNN(NC)C(=O)Nc1cccc2c1C(=O)c1c-2n[nH]c1-c1ccco1`, the figure is 202 °C; as for `CC(C)(C)OC(=O)CNC(=O)CC(c1ccccc1)c1ccccc1`, 77 to 81 °C; as for `CC(C)(C)[Si](C)(C)O[C@H]1OC[C@@H](n2cnc3cc(Cl)c(Cl)cc32)[C@H](O)[C@@H]1O`, 128 to 130 °C.
`CCN1CCO[C@]2(C)c3cccc4[nH]cc(c34)C[C@@H]12` (relative stereo): the melting point was 129 to 130 °C.
As for `CC[C@]12CC[C@H]3[C@@H](CC(Cl)C4=CC(=O)CC[C@@H]43)[C@@H]1C=CC2=O` (stereo partly drawn), the melting point worked out at 136 °C.
Then `CCS(=O)(=O)NCc1cccc(-c2nc(=O)c3ccccc3s2)n1`, with 170 to 171 °C; and `CCOC(=O)C1CN(S(C)(=O)=O)CCN1CC=CC(=O)Nc1cc2c(Nc3ccc(F)c(Cl)c3)ncnc2cc1OCC1CC1` (stereo not drawn), with 170 to 173 °C.
`CN(C)C(=C[N+](=O)[O-])NCc1ccc(Cl)nc1` returned a melting point of 124 to 125 °C.
Then `CNC(=O)C1=CC(C)(C)Oc2ccc(C(F)(F)F)cc21`, with 146 to 150 °C; and `CCC(OCCc1ccc(-c2ccc(Cl)cc2)cc1)C(=O)O` (stereo not drawn), with 90 to 92 °C; and `C=CCC1C(=O)c2cc(OC)ccc2C2CCC3(C)C(O)CCC3C12` (stereo not drawn), with 122 to 123 °C.
In the case of `CC(C)Cn1c(=O)n(C)c(=O)c2cc(Cc3cccc4ccccc34)sc21`, the melting point lay within 137 to 138 °C.
Compound `Cc1cc(-n2ccnc2)c2cccc(OCc3c(Cl)ccc(S(=O)(=O)N4CCC[C@H]4C(=O)N4CCOCC4)c3Cl)c2n1` displayed a melting point of 50 °C.
Then `Cc1c(O)nc2sc(SCc3ccccc3)nn2c1=O`, with 247 to 250 °C; and `CCN(CC)CCOc1ccc(Nc2ncc3c(n2)N(C)C(=O)N(c2c(Cl)cc(Cl)cc2Cl)C3)cc1`, with 142 °C.
For `CSCC(C)(C)NC(=O)c1c(I)cccc1[N+](=O)[O-]`, the melting point lay in the range of 114 to 115 °C.

These data come from a melting point compilation (Tetko et al.; mined from patent text by program, amines drawn as free bases though some values may be those of a salt).
